Reference: patent US20220226340A1, “CASEIN KINASE 1 INHIBITORS FOR USE IN THE TREATMENT OF DISEASES RELATED TO DUX4 EXPRESSION SUCH AS MUSCULAR DYSTROPHY AND CANCER” (Facio Intellectual Property B.V., priority 2019, published 2022)
Where two headings read alike, the source gives them in different places.

Assays:
[1] = system: pancreatic tumor cell; details: in vitro and in vivo; cited from earlier work
[2] = target: CK1ε (Homo sapiens, UniProt P49674); assay: CK1ε inhibition IC50; assay type: biochemical; details: Table 6; read-out: IC50 CK1ε
Sequence of CK1ε (P49674 whole entry, the tested form may be a part): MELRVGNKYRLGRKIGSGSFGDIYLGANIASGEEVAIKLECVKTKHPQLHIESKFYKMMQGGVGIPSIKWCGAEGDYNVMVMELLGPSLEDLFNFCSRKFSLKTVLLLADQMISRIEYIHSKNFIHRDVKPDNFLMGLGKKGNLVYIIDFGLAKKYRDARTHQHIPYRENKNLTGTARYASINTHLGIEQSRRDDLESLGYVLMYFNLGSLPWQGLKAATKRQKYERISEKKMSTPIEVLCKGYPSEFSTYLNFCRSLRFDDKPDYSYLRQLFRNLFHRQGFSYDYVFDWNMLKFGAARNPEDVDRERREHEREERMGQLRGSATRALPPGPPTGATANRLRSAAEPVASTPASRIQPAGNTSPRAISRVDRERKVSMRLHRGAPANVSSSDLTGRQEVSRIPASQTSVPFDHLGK

[3] = system: primary FSHD cells; assay: fusion index (myotube fusion) readout of the high-content assay in primary FSHD cells; assay type: cell-based, human; details: 72 h, CK1 inhibitor combined with losmapimod, microscopic images
Source text: (§1) A quantitative assay readout was developed based on script-based image analysis. […] To analyse the images, an automated script was developed, enabling the detection of nuclei, myotube borders and DUX4 signals, with the script also detecting artefacts to reduce false positive signals. The script enabled multiple validated readouts including the number of DUX4 positive nuclei and nuclei clusters, the fusion index, myotube area, myotube width and myotube skeleton length (see FIG. 2). Additionally, the total nuclei count was included as a measure of cell loss or compound toxicity.
(§2) Compounds are administered either 15 h before fixation, resembling the original screening protocol, or 72 h before fixation (grey arrow). In the latter case, compounds are present during the whole differentiation process.

[4] = target: CK1δ (Homo sapiens, UniProt P48730); assay: CK1δ inhibition IC50; assay type: biochemical; details: Table 6; read-out: IC50 CK1δ
Sequence of CK1δ (P48730 whole entry): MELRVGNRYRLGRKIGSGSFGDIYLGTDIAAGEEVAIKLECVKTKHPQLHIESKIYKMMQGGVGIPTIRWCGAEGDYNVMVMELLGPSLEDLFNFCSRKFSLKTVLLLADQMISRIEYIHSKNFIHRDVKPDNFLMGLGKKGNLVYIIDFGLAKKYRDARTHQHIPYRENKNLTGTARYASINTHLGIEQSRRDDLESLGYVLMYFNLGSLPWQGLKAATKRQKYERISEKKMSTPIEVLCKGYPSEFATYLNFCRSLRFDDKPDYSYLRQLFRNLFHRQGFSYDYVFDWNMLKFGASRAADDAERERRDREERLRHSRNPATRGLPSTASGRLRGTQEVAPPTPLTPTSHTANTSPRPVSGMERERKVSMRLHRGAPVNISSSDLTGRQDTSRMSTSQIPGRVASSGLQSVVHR

[5] = system: DUX4; assay: high-content immunocytochemistry assay of endogenous DUX4 expression in differentiating primary FSHD myotubes; assay type: cell-based, human; details: for EC50: Homo sapiens, Myotube, 72 h, 72 h treatment protocol, read-out: DUX4 EC50
Source text: as §1
A compound library containing approximately 5000 annotated compounds was screened in the high-content assay. For this purpose, primary myoblasts were seeded in 384 well plates after which the growth medium was replaced with differentiation medium. After 3 days of differentiation, cells were treated with library compounds (in duplicate on different screening plates) for 15 h, after which they were fixed and stained with antibodies against DUX4, antibodies against myosin heavy chain (MHC), and with DAPI (4′,6-diamidino-2-phenylindole). Script-based analysis provided readouts for DUX4 expression (count of DUX4-positive nuclei or DUX4 intensity) and for potential toxicity (fusion index and nuclei count).
Compounds were incubated with primary FSHD cells for 15 hours, as indicated by the arrow in FIG. 4A.
as §2

[6] = target: p38α (Homo sapiens, UniProt Q16539); assay: p38α inhibition IC50; assay type: biochemical; details: Table 6; read-out: IC50 p38α
Sequence of p38α (Q16539 whole entry): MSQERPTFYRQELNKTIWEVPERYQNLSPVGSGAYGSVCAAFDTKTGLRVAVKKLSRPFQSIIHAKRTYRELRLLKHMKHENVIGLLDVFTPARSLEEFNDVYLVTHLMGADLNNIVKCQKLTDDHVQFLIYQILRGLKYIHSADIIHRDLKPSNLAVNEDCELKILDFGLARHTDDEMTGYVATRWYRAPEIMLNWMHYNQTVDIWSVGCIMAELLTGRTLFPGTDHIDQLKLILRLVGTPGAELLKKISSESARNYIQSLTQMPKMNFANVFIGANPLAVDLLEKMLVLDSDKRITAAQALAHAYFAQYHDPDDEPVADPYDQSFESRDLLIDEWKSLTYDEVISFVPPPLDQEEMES

[7] = system: DUX4; details: immortalised differentiated myotube cultures; cited from earlier work

For `COc1cc(OC)c(C=C2C(O)=Nc3ccccc32)c(OC)c1` [IC261], the “pancreatic tumor cell growth” value [1] is given as “reduces pancreatic tumor cell growth”.
In the case of `Cn1cc(-c2ccnc3c2C(=O)OC3)c(-c2ccc(F)cc2)n1` [Nr. 4], the IC50 [2] is reported as 0.052 µM, the “myotube formation in the presence of increasing concentrations of losmapimod” value [3] is reported as “myotube formation is still intact” and the IC50 [4] is reported as 0.033 µM. The EC50 ([5]; Table 4) was 4.8 µM and the EC50 ([5]; Table 6) was 4.8 µM.
For `Fc1ccc(-c2nc3ccc(N4CCNCC4)nn3c2-c2ccncc2)cc1` [Nr. 8], the IC50 [2] was 0.009 µM, the IC50 [6] was 0.015 µM and the “myotube formation in the presence of increasing concentrations of losmapimod” value [3] was “myotube formation is still intact”. The IC50 [4] was 0.016 µM, the “effect on DUX4” value ([5]; 72 h treatment) was “near maximal DUX4 inhibition” and the EC50 ([5]; Table 4) was 0.01 to 0.06 µM. The EC50 ([5]; Table 6) was 0.01 µM.
For `COc1cc(OC)c2c(=O)[nH]c(-c3cc(C)c(OCCO)c(C)c3)nc2c1` [RVX-208, reference compound], the “effect on DUX4 expression” value ([5]; irrespective of treatment time (15 h or 72 h)) is given as “did not show any effect on DUX4 expression” and the “expression of DUX4” value [7] is given as “can inhibit the expression of DUX4”.
